Assay results: ChEMBL document CHEMBL4402519, “The Mediterranean Diet as source of bioactive compounds with multi-targeting anti-cancer profile” (Eur J Med Chem, 2019)
Values after ≈ are worked out from the molar mass of the structure shown.

Columns and labels:
HL-60 = assay: Growth inhibition of human HL60 cells after 72 hrs by MTT assay; assay type: functional, cell-based; settings: HL-60, 72 h
PC-3 [1] = assay: Antiproliferative activity against human PC3 cells after 24 hrs by MTT assay; assay type: functional, cell-based; settings: PC-3, 24 h
PC-3 [2] = assay: Antiproliferative activity against human PC3 cells after 48 hrs by MTT assay; assay type: functional, cell-based; settings: PC-3, 48 h
COLO 205 [3] = assay: Induction of apoptosis in human COLO205 cells after 24 hrs; assay type: functional, cell-based; settings: COLO 205, 24 h
COLO 205 [4] = assay: Induction of apoptosis in human COLO205 cells after 24 hrs relative to control; assay type: functional

| SMILES | IC50 (HL-60) | also measured |
| --- | --- | --- |
| O=C1c2c(O)cc(O)cc2O[C@H](c2ccc(O)c(O)c2)[C@H]1O [(+)-TAXIFOLIN] | 0.01 to 0.94 mg/L (≈ 0.0329 to 3.09 µM) | – |
| COc1ccc([C@@H]2CC(=O)c3c(O)cc(O)cc3O2)cc1O [HESPERETIN] | – | IC50 (PC-3 [1]): 90 µM; IC50 (PC-3 [2]): 40 µM |
| COc1ccc(-c2cc(=O)c3c(OC)c(OC)c(OC)c(OC)c3o2)cc1OC [NOBILETIN] | 0.01 to 0.94 mg/L (≈ 0.0249 to 2.34 µM) | – |
| O=c1c(O)c(-c2ccc(O)c(O)c2)oc2cc(O)cc(O)c12 [QUERCETIN] | 0.01 to 0.94 mg/L (≈ 0.0331 to 3.11 µM) | – |
| CC(C)c1cc2c(c(O)c1O)[C@@]13CCCC(C)(C)[C@@H]1[C@H](OC3=O)[C@H]2O [ROSMANOL] | – | IC50 (COLO 205 [3]): 42 µM; Activity (COLO 205 [4]): 51% |
| COc1ccc(-c2cc(=O)c3c(OC)c(OC)c(OC)c(OC)c3o2)cc1 [TANGERETIN] | 0.01 to 0.94 mg/L (≈ 0.0269 to 2.52 µM) | – |
